Assay results: ChEMBL document CHEMBL1201862, “PubChem BioAssay data set” (2004)
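Where inhibition never reached the appropriate level, the endpoint shown equals the highest concentration tested. Otherwise, values were interpolated linearly from a five-concentration, 48-hour dose response in 96-well plates. GI50 is the concentration that inhibits growth by half.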 Active and inactive are the calls of the source. Rule as the data show it: active = GI50 up to about 1.1 µM and inactive = higher.

Experiments:
Assay in all cases: NCI anticancer screen, dose series, 48 h
[1] = tested on: SF-295
[2] = tested on: SK-MEL-28
[3] = tested on: SN12C
[4] = tested on: HOP-92
[5] = tested on: HL-60
[6] = tested on: ACHN
[7] = tested on: RPMI-8226
[8] = tested on: UACC-62
[9] = tested on: SK-MEL-5
[10] = tested on: NCI-H522
[11] = tested on: OVCAR-4
[12] = tested on: CAKI-1
[13] = tested on: EKVX
[14] = tested on: K562
[15] = tested on: Malme-3M
[16] = tested on: NCI-H23
[17] = tested on: HCC 2998
[18] = tested on: SK-MEL-2
[19] = tested on: TK-10
[20] = tested on: RXF 393

Structure (SMILES) | GI50 [1] | GI50 [2] | GI50 [3] | GI50 [4] | GI50 [5] | GI50 [6] | GI50 [7] | GI50 [8] | GI50 [9] | GI50 [10] | GI50 [11] | GI50 [12] | GI50 [13] | GI50 [14] | GI50 [15] | GI50 [16] | GI50 [17] | GI50 [18] | GI50 [19] | GI50 [20]
O=C(/C(=C/c1ccc(O)cc1)c1ccccc1)c1ccccc1 | 16.1 µM (inactive) | 17.9 µM (inactive) | 18.4 µM (inactive) | 5.65 µM (inactive) | 13.6 µM (inactive) | 16.1 µM (inactive) | 17.3 µM (inactive) | 14.1 µM (inactive) | 15 µM (inactive) | 15.2 µM (inactive) | 21.9 µM (inactive) | 19.1 µM (inactive) | 20 µM (inactive) | 17.8 µM (inactive) | 19 µM (inactive) | 15 µM (inactive) | 17.4 µM (inactive) | 11.6 µM (inactive) | 16.2 µM (inactive) | –
Cc1ccc(C2NC(=O)c3ccccc3N2)s1 (stereo unspecified) | 2.37 µM (inactive) | 5.81 µM (inactive) | 4.79 µM (inactive) | – | 2.92 µM (inactive) | > 100 µM (inactive) | 4.69 µM (inactive) | 5.51 µM (inactive) | 2.88 µM (inactive) | 4.26 µM (inactive) | – | – | > 100 µM (inactive) | 3.2 µM (inactive) | 4.8 µM (inactive) | 4.36 µM (inactive) | 7.05 µM (inactive) | 3.75 µM (inactive) | > 100 µM (inactive) | 5.86 µM (inactive)
Cc1ccc(S(=O)(=O)NCCSCCNS(=O)(=O)c2ccc(C)cc2)cc1 | > 100 µM (inactive) | > 100 µM (inactive) | > 100 µM (inactive) | > 100 µM (inactive) | – | > 100 µM (inactive) | – | – | > 100 µM (inactive) | > 100 µM (inactive) | > 100 µM (inactive) | – | – | > 100 µM (inactive) | – | > 100 µM (inactive) | > 100 µM (inactive) | – | > 100 µM (inactive) | > 100 µM (inactive)
COc1ccc2cc(/C=N\NC(=O)Nc3cccc4ccccc34)ccc2c1 | – | 33 µM (inactive) | 36.6 µM (inactive) | – | > 10 µM (inactive) | 23.9 µM (inactive) | – | – | 37.3 µM (inactive) | 80 µM (inactive) | 14.5 µM (inactive) | 23.8 µM (inactive) | 30.6 µM (inactive) | 14.6 µM (inactive) | 97.7 µM (inactive) | 24.3 µM (inactive) | > 100 µM (inactive) | 25.7 µM (inactive) | 22 µM (inactive) | 38.5 µM (inactive)
Cc1ccc(-c2c(C#N)c(N)nc3c2CCS(=O)(=O)c2ccccc2-3)cc1 | – | 72.4 µM (inactive) | 81.8 µM (inactive) | 34.1 µM (inactive) | – | 52.4 µM (inactive) | > 100 µM (inactive) | 57.3 µM (inactive) | 66.7 µM (inactive) | > 100 µM (inactive) | 40.6 µM (inactive) | > 100 µM (inactive) | – | > 100 µM (inactive) | 39.4 µM (inactive) | > 100 µM (inactive) | > 100 µM (inactive) | 49.1 µM (inactive) | 59.7 µM (inactive) | –
CC(C)OP(=O)(OC(C)C)c1ccc2c(c1)OCCOCCOCCOCCO2 | > 100 µM (inactive) | > 100 µM (inactive) | > 100 µM (inactive) | – | > 100 µM (inactive) | > 100 µM (inactive) | > 100 µM (inactive) | > 100 µM (inactive) | > 100 µM (inactive) | > 100 µM (inactive) | – | > 100 µM (inactive) | > 100 µM (inactive) | > 100 µM (inactive) | > 100 µM (inactive) | > 100 µM (inactive) | > 100 µM (inactive) | – | > 100 µM (inactive) | –
CCOC(=O)C1(Cc2ccc3ccccc3c2)CCCCC(=O)N1 (stereo unspecified) | 8.89 µM (inactive) | 41 µM (inactive) | 44.5 µM (inactive) | 13.1 µM (inactive) | 12.1 µM (inactive) | 67.5 µM (inactive) | 3.78 µM (inactive) | 36.1 µM (inactive) | – | – | 36.1 µM (inactive) | 43.1 µM (inactive) | 54.8 µM (inactive) | 4.55 µM (inactive) | 11.9 µM (inactive) | 26 µM (inactive) | 8.67 µM (inactive) | – | 56.1 µM (inactive) | > 100 µM (inactive)
CC(=O)N1OC(C)CC1Nc1ccc(Br)cc1 (stereo unspecified) | > 100 µM (inactive) | – | 20.8 µM (inactive) | > 100 µM (inactive) | 1.95 µM (inactive) | 0.415 µM (active) | – | 88.3 µM (inactive) | 6.31 µM (inactive) | – | – | – | > 100 µM (inactive) | 0.345 µM (active) | > 100 µM (inactive) | > 100 µM (inactive) | 3.05 µM (inactive) | 2.62 µM (inactive) | 14.7 µM (inactive) | > 100 µM (inactive)
O=C(Cc1ccccc1)NN1C(=O)/C(=C\c2ccc(O)cc2)S/C1=N\c1ccccc1 | > 100 µM (inactive) | > 100 µM (inactive) | > 100 µM (inactive) | 21.6 µM (inactive) | > 100 µM (inactive) | > 100 µM (inactive) | > 100 µM (inactive) | > 100 µM (inactive) | > 100 µM (inactive) | – | > 100 µM (inactive) | – | > 100 µM (inactive) | > 100 µM (inactive) | – | > 100 µM (inactive) | > 100 µM (inactive) | > 100 µM (inactive) | > 100 µM (inactive) | > 100 µM (inactive)
